In patent US20240092756A1, “METHODS AND COMPOSITION FOR KRAS MODIFICATIONS” (2692372 ONTARIO, INC., priority 2020, published 2024):

Each compound was assayed on phospho-ERK1/2 in MIA PaCa-2 cells (express KRAS G12C) (assay: ERK1/2 phosphorylation in MIA PaCa-2 cells). Conditions: not given.
Type: cell-based, human
Set-up: key: X: KRAS G12C bound and modulated in cells
Method: MIA PaCa-2 cells were cultured in Dulbecco's Modified Eagle's Medium (Wisent) supplemented with 10% FBS, 2.5% horse serum, and 1% penicillin/streptomycin. Cells were seeded in 6-well plates at 500,000 cells/well and incubated at 37° C., 5% CO2 for 16 hours. Cells were treated with the indicated concentrations of compound or DMSO alone and incubated at 37° C., 5% CO2 for 6 or 24 hours. Conditioned media was discarded, and adherent cells were washed with PBS before they were scraped. Cell suspensions were centrifugated at 2,000 RPM for 5 minutes at 4° C. and supernatants were discarded. Cell pellets were resuspended with 1×RIPA buffer (Millipore) and incubated on ice for 15 minutes. Protein lysates were extracted by centrifugating at 20,000 RPM for 20 minutes at 4° C. Proteins were separated and total KRas protein levels were quantified by Simple Western Immunoassay (ProteinSimple) using the 2-40 kDa Separation Module for Jess according to the manufacturer's protocol, using a protein concentration of 0.5 μg/μl and antibodies targeting KRas (clone #4F3, Sigma) and GAPDH (clone #14C10, Cell Signaling) diluted to 1:10 and 1:1600, respectively, where the latter was used as a loading control. A 3:1 ratio of rabbit to mouse HRP-conjugated secondary antibodies was used for detection. KRas protein levels were quantified relative to GAPDH loading levels and subsequently normalized to the DMSO control. Phosphorylated ERK1/2 levels were quantified by Simple Western Immunoassay (ProteinSimple) using the Protein Normalization Assay Module for Jess according to the manufacturer's protocol using a protein concentration of 0.5 μg/μl and an antibody targeting phosphor-ERK1/2 (clone #D13.14.4E, Cell Signalling) diluted to 1:10. Phosphorylated ERK1/2 levels were normalized to the Jess Protein Normalization Reagent loading control and subsequently to the DMSO control.
MIA PaCa-2 cells were cultured in Dulbecco's Modified Eagle's Medium (Wisent) supplemented with 10% FBS, 2.5% horse serum, and 1% penicillin/streptomycin. Cells were seeded in 96-well plates at a density of 25,000 cells/well and incubated at 37° C., 5% CO2 for 24 hours. The next day, cells were starved in cell culture media containing 1% FBS only at 37° C., 5% CO2 for 16 hours. Following starvation, serially-diluted compounds or DMSO alone were added to cells and incubated at 37° C., 5% CO2 for 1 or 3 hours. Prior to cell lysis, 25 ng/ml human epidermal growth factor (hEGF) (Sigma) was added to the cells and incubated at 37° C., 5% CO2 for 10 minutes. Conditioned media was discarded, and adherent cells lysed and basal ERK1/2 phosphorylation levels were measured using the Phospho-ERK (Thr202/Tyr204) Cellular HTRF kit (Perkin Elmer) according to the manufacturer's protocol. The fluorescent signal of the acceptor antibody at a wavelength of 665 nm was normalized to that of the donor antibody at 620 nm. HTRF ratios were plotted and relative IC50 values were obtained using Prism (GraphPad).

Row | Compound | pERK - MIA PaCa-2 - (6 hours, 5 uM)
1 | O=S(=O)(c1c(F)c(F)c(F)c(F)c1C(F)(F)F)N1CCN(c2ncnc3c2CCN(c2cccc4cccc(Cl)c24)C3)CC1 [Compound 32A, 7-(8-chloronaphthalen-1-yl)-4-(4-((2,3,4,5-tetrafluoro-6-(trifluoromethyl)phenyl)sulfonyl)piperazin-1-yl)-5,6,7,8-tetrahydropyrido[3,4-d]pyrimidine] | X
2 | O=S(=O)(c1c(F)c(F)c(F)c(F)c1C(F)(F)F)N1CCN(c2ncnc3c2CCN(c2cccc4ccccc24)C3)CC1 [Compound 33A, 7-(naphthalen-1-yl)-4-(4-((2,3,4,5-tetrafluoro-6-(trifluoromethyl)phenyl)sulfonyl)piperazin-1-yl)-5,6,7,8-tetrahydropyrido[3,4-d]pyrimidine] | X
3 | C[C@H]1CN(c2c(F)c(F)c(F)c(F)c2S(C)(=O)=O)CCN1c1ncnc2cc(-c3ccccc3F)c(Cl)cc12 [Compound 34A, (S)-6-chloro-7-(2-fluorophenyl)-4-(2-methyl-4-(2,3,4,5-tetrafluoro-6-(methylsulfonyl)phenyl)piperazin-1-yl)quinazoline] | X
4 | CS(=O)(=O)c1c(F)c(F)c(F)c(F)c1NC1CN(c2ncnc3cc(-c4ccccc4F)c(Cl)cc23)C1 [Compound 36A, 1-(6-chloro-7-(2-fluorophenyl)quinazolin-4-yl)-N-(2,3,4,5-tetrafluoro-6-(methylsulfonyl)phenyl)azetidin-3-amine] | X
5 | COc1cc(N2CCc3c(ncnc3N3CCN(S(=O)(=O)c4c(F)c(F)c(F)c(F)c4C(F)(F)F)CC3)C2)c2ccccc2c1 [Compound 40A, 7-(3-methoxy-1-naphthyl)-4-[4-[2,3,4,5-tetrakis(fluoranyl)-6-[tris(fluoranyl)methyl]phenyl]sulfonylpiperazin-1-yl]-6,8-dihydro-5H-pyrido[3,4-d]pyrimidine] | X
6 | C[C@H]1CN(Cc2c(F)c(F)c(F)c(F)c2[S+](C)[O-])CCN1c1ncnc2cc(-c3ccccc3F)c(Cl)cc12 (stereo partly drawn) [Compound 46A, 6-chloro-7-(2-fluorophenyl)-4-((2S)-2-methyl-4-(2,3,4,5-tetrafluoro-6-(methylsulfinyl)benzyl)piperazin-1-yl)quinazoline] | X

Each compound was assayed against KRAS G12C (Homo sapiens, UniProt P01116, G12C) (assay: SOS1-catalyzed KRAS coupled nucleotide exchange assay (Alpha technology)). Conditions: inhibition of SOS1 mediated KRAS nucleotide exchange.
Type: biochemical
Set-up: His; key: A: KRAS G12C bound and modulated
Method: Method I: The inhibition of the SOS1-catalyzed nucleotide exchange activity of KRAS (e.g., KRAS G12C/C118A) was measured using Alpha (Amplified Luminescent Proximity Homogeneous Assay) technology. 20 nM GDP-bound human KRAS (G12C/C118A) protein was incubated with two-fold serially-diluted test compound or DMSO for 5 minutes at ambient temperature in reaction buffer (25 mM HEPES, pH 7.4; 10 mM MgCl2; 0.01% Triton X-100). For all subsequent steps, DTT was added to the reaction buffer at a final concentration of 1 mM. Next, GTP and SOS-1 were added in DTT-reaction buffer at final concentrations of 1.25 mM or 500 nM, respectively, and incubated at RT for 30 minutes. Finally, c-RAF RBD (50 nM final), Alpha glutathione donor beads (PerkinElmer; 20 μg/mL final), and AlphaLISAnickel chelate acceptor beads (PerkinElmer; 20 μg/mL final), all diluted in DTT-reaction buffer, were added. The reaction mixture was incubated at RT for 5 min, and then the plates were read on an EnVision® Multilabel Reader using the AlphaScreen protocol. Luminescence signal was measured at 570 nm following a 180 ms excitation at 680 nm. Signal intensity corresponded with the association of c-RAF RBD with GTP-bound KRAS G12C/C118A and was normalized to DMSO control.
Method II: Inhibition of the SOS1-catalyzed nucleotide exchange activity of KRAS^G12C was measured using Alpha technology (PerkinElmer). 50 nM GDP-bound human KRAS^G12C protein was incubated with serially-diluted compound or DMSO for 2 hrs at RT in RBD-RAS binding buffer (BPSBioscience). 1 mM GTP and 500 nM SOS-1 were added to the reaction mixture and incubated at RT for 30 min. GST-tagged RBD-cRAF was then added to the reaction mixture at a final concentration of 2.5 nM and incubated at RT for 30 min. Finally, Alpha Glutathione acceptor beads and Nickel chelate donor beads (PerkinElmer) were diluted to 1:500 and 1:250, respectively, and added to the reaction mixture. The final reaction was incubated at RT for 30 min. Plates were read on a TECAN SPARK® Multiplate Reader. The luminescence signal was measured at 615 nm following excitation at 680 nm. Signal intensity was normalized to DMSO control.

Row | Compound | KRAS-SOS1 Nucleotide Exchange
7 | C[C@H]1CN(c2c(F)c(F)c(S(C)(=O)=O)c(F)c2F)CCN1c1ccnc2c(F)c(-c3c(O)cccc3F)c(Cl)cc12 (racemic) [Compound 24A, 2-(6-chloro-8-fluoro-4-((S)-2-methyl-4-(2,3,5,6-tetrafluoro-4-(methylsulfonyl)phenyl)piperazin-1-yl)quinolin-7-yl)-3-fluorophenol] | A
8 | Cc1cccc(C)c1-c1cc2nccc(N3CC(Nc4c(F)c(F)c([S@+](C)[O-])c(F)c4F)C3)c2cc1Cl (racemic) [Compound 27A] | A
9 | C[S+]([O-])c1c(F)c(F)c(NC2CN(c3ncnc4cc(-c5ccccc5F)c(Cl)cc34)C2)c(F)c1F (racemic) [Compound 28A, 1-(6-chloro-7-(2-fluorophenyl)quinazolin-4-yl)-N-(2,3,5,6-tetrafluoro-4-(methylsulfinyl)phenyl)azetidin-3-amine] | A
10 | C[C@H]1CN(c2c(F)c(F)c(S(C)(=O)=O)c(F)c2F)CCN1c1ccnc2c(F)c(-c3c(O)cccc3F)c(Cl)cc12 (single isomer, unassigned) [Compound 25A] | A
11 | C[C@H]1CN(c2c(F)c(F)c(S(C)(=O)=O)c(F)c2F)CCN1c1ccnc2c(F)c(-c3c(O)cccc3F)c(Cl)cc12 (single isomer, unassigned) [Compound 26A] | A
12 | O=S(=O)(NC1CN(c2ncnc3c2CCN(c2cccc4cccc(Cl)c24)C3)C1)c1c(F)c(F)c(F)c(F)c1F [Compound 21A, N-(1-(7-(8-chloronaphthalen-1-yl)-5,6,7,8-tetrahydropyrido[3,4-d]pyrimidin-4-yl)azetidin-3-yl)-2,3,4,5,6-pentafluorobenzenesulfonamide] | A
13 | Cc1cccc(C)c1-c1cc2nccc(N3CC(Nc4c(F)c(F)c(S(C)(=O)=O)c(F)c4F)C3)c2cc1Cl [Compound 22A, 1-(6-chloro-7-(2,6-dimethylphenyl)quinolin-4-yl)-N-(2,3,5,6-tetrafluoro-4-(methylsulfonyl)phenyl)azetidin-3-amine] | A
14 | CS(=O)(=O)c1c(F)c(F)c(NC2CN(c3ncnc4cc(-c5ccccc5F)c(Cl)cc34)C2)c(F)c1F [Compound 23A, 1-(6-chloro-7-(2-fluorophenyl)quinazolin-4-yl)-N-(2,3,5,6-tetrafluoro-4-(methylsulfonyl)phenyl)azetidin-3-amine] | A
15 | CSc1c(F)c(F)c(N2CCN(c3ccnc4c(F)c(-c5c(O)cccc5F)c(Cl)cc34)[C@@H](C)C2)c(F)c1F [Compound 29A, 2-(6-chloro-8-fluoro-4-((S)-2-methyl-4-(2,3,5,6-tetrafluoro-4-(methylthio)phenyl)piperazin-1-yl)quinolin-7-yl)-3-fluorophenol] | A
16 | O=S(=O)(c1c(F)c(F)c(F)c(F)c1OC(F)F)N1CCN(c2ncnc3c2CCN(c2cccc4ccccc24)C3)CC1 [Compound 30A, 4-(4-((2-(difluoromethoxy)-3,4,5,6-tetrafluorophenyl)sulfonyl)piperazin-1-yl)-7-(naphthalen-1-yl)-5,6,7,8-tetrahydropyrido[3,4-d]pyrimidine] | A
17 | C[C@H]1CN(c2c(F)c(F)c(F)c(F)c2[S+](C)[O-])CCN1c1ncnc2cc(-c3ccccc3F)c(Cl)cc12 (stereo partly drawn) [Compound 38A, 6-chloro-7-(2-fluorophenyl)-4-((2S)-2-methyl-4-(2,3,4,5-tetrafluoro-6-(methylsulfinyl)phenyl)piperazin-1-yl)quinazoline] | A
18 | Cc1cccc(C)c1-c1cc2nccc(N3CCN(Cc4c(F)c(F)c(F)c(F)c4S(C)(=O)=O)C[C@@H]3C)c2cc1Cl [Compound 45A, (S)-6-chloro-7-(2,6-dimethylphenyl)-4-(2-methyl-4-(2,3,4,5-tetrafluoro-6-(methylsulfonyl)benzyl)piperazin-1-yl)quinoline] | A
19 | CSc1c(F)c(F)c(F)c(F)c1N1CC(Nc2ncnc3cc(-c4ccccc4F)c(Cl)cc23)C1 [Compound 47A, 6-chloro-7-(2-fluorophenyl)-N-(1-(2,3,4,5-tetrafluoro-6-(methylthio)phenyl)azetidin-3-yl)quinazolin-4-amine] | A
